Experimental data reported in PubChem BioAssay AID1963852 (Molecular Pharmacology Branch, DTP, NCI, 2024).

Tested on: 282377-053-R-J1-PDC complex spheroid viability
Experiment: Anticancer human tumor 282377-053-R-J1-PDC patient-derived colon adenocarcinoma cell line growth inhibition [POLQ]
Conditions: for IC50: curve of first compound; for viability, T/C: stronger effect = lower value
Method in brief: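 Complex spheroid viability model combining PDC tumour cells with endothelial (HUVEC) and MSC stromal cells. Novobiocin, ART-558 or RP6685 were tested singly and in combination with standard and investigational anticancer drugs. Each was titrated in half-log steps from near clinical Cmax, or from 10 microM where Cmax was unknown.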

[1] = second compound 0.0316 µM, first compound 0.00949 µM
[2] = second compound 0.0316 µM, first compound 0.03 µM
[3] = second compound 0.0316 µM, first compound 0.0949 µM
[4] = second compound 0.0316 µM, first compound 0.3 µM
[5] = second compound 0.0316 µM, first compound 0.949 µM
[6] = second compound 0.0316 µM, first compound 3 µM
[7] = second compound 0.1 µM, first compound 0.00949 µM
[8] = second compound 0.1 µM, first compound 0.03 µM
[9] = second compound 0.1 µM, first compound 0.0949 µM
[10] = second compound 0.1 µM, first compound 0.3 µM
[11] = second compound 0.1 µM, first compound 0.949 µM
[12] = second compound 0.1 µM, first compound 3 µM
[13] = second compound 0.316 µM, first compound 0.00949 µM
[14] = second compound 0.316 µM, first compound 0.03 µM
[15] = second compound 0.316 µM, first compound 0.0949 µM
[16] = second compound 0.316 µM, first compound 0.3 µM
[17] = second compound 0.316 µM, first compound 0.949 µM
[18] = second compound 0.316 µM, first compound 3 µM
[19] = second compound 1 µM, first compound 0.00949 µM
[20] = second compound 1 µM, first compound 0.03 µM
[21] = second compound 1 µM, first compound 0.0949 µM
[22] = second compound 1 µM, first compound 0.3 µM
[23] = second compound 1 µM, first compound 0.949 µM
[24] = second compound 1 µM, first compound 3 µM
[25] = second compound 3.16 µM, first compound 0.00949 µM
[26] = second compound 3.16 µM, first compound 0.03 µM
[27] = second compound 3.16 µM, first compound 0.0949 µM
[28] = second compound 3.16 µM, first compound 0.3 µM
[29] = second compound 3.16 µM, first compound 0.949 µM
[30] = second compound 3.16 µM, first compound 3 µM
[31] = second compound 10 µM, first compound 0.00949 µM
[32] = second compound 10 µM, first compound 0.03 µM
[33] = second compound 10 µM, first compound 0.0949 µM
[34] = second compound 10 µM, first compound 0.3 µM
[35] = second compound 10 µM, first compound 0.949 µM
[36] = second compound 10 µM, first compound 3 µM
[37] = second compound 0.0316 µM, first compound 0.0316 µM
[38] = second compound 0.0316 µM, first compound 0.1 µM
[39] = second compound 0.1 µM, first compound 0.0316 µM
[40] = second compound 0.1 µM, first compound 0.1 µM
[41] = second compound 0.316 µM, first compound 0.0316 µM
[42] = second compound 0.316 µM, first compound 0.1 µM
[43] = second compound 1 µM, first compound 0.0316 µM
[44] = second compound 1 µM, first compound 0.1 µM
[45] = second compound 3.16 µM, first compound 0.0316 µM
[46] = second compound 3.16 µM, first compound 0.1 µM
[47] = second compound 10 µM, first compound 0.0316 µM
[48] = second compound 10 µM, first compound 0.1 µM
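Note: spheroids exposed to compounds for seven days.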
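Throughout, for viability, T/C: 100% = DMSO vehicle control viability.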

## CC(=O)O[C@H]1C(=O)[C@@]2(C)[C@H]([C@H](OC(=O)c3ccccc3)[C@]3(O)C[C@H](OC(=O)[C@H](O)[C@@H](NC(=O)c4ccccc4)c4ccccc4)C(C)=C1C3(C)C)[C@]1(OC(C)=O)CO[C@@H]1C[C@@H]2O + COC1C(OC(N)=O)C(O)C(Oc2ccc3c(O)c(NC(=O)c4ccc(O)c(CC=C(C)C)c4)c(=O)oc3c2C)OC1(C)C
Second compound 0.0316 µM
  IC50: < 9.49 nM
Second compound 0.1 µM
  IC50: 10.4 nM
Second compound 0.316 µM
  IC50: 11.5 nM
Second compound 1 µM
  IC50: 11.4 nM
Second compound 3.16 µM
  IC50: 12.6 nM
Second compound 10 µM
  IC50: 13.1 nM
[1]
  viability, T/C: 39.3%
[2]
  viability, T/C: 18.9%
[3]
  viability, T/C: 19.9%
[4]
  viability, T/C: 20.6%
[5]
  viability, T/C: 19.5%
[6]
  viability, T/C: 24.1%
[7]
  viability, T/C: 52.5%
[8]
  viability, T/C: 21.9%
[9]
  viability, T/C: 20.9%
[10]
  viability, T/C: 18.1%
[11]
  viability, T/C: 22.1%
[12]
  viability, T/C: 25.3%
[13]
  viability, T/C: 55.7%
[14]
  viability, T/C: 20.8%
[15]
  viability, T/C: 19.9%
[16]
  viability, T/C: 20.7%
[17]
  viability, T/C: 22.9%
[18]
  viability, T/C: 20.6%
[19]
  viability, T/C: 55.6%
[20]
  viability, T/C: 20.8%
[21]
  viability, T/C: 16.8%
[22]
  viability, T/C: 17.1%
[23]
  viability, T/C: 22.2%
[24]
  viability, T/C: 27.9%
[25]
  viability, T/C: 58.5%
[26]
  viability, T/C: 23.8%
[27]
  viability, T/C: 15.8%
[28]
  viability, T/C: 18.2%
[29]
  viability, T/C: 23.1%
[30]
  viability, T/C: 29.4%
[31]
  viability, T/C: 61.4%
[32]
  viability, T/C: 20.9%
[33]
  viability, T/C: 16.9%
[34]
  viability, T/C: 20.7%
[35]
  viability, T/C: 24.5%
[36]
  viability, T/C: 20.2%

## CC(=O)O[C@H]1C(=O)[C@@]2(C)[C@H]([C@H](OC(=O)c3ccccc3)[C@]3(O)C[C@H](OC(=O)[C@H](O)[C@@H](NC(=O)c4ccccc4)c4ccccc4)C(C)=C1C3(C)C)[C@]1(OC(C)=O)CO[C@@H]1C[C@@H]2O + Nc1ccc(C#CCN(C(=O)Cc2ncc(C(F)(F)F)cc2C(F)(F)F)c2ccc(F)cc2)nn1
Second compound 0.0316 µM
  IC50: > 3000 nM
Second compound 0.1 µM
  IC50: > 3000 nM
Second compound 0.316 µM
  IC50: 3000 nM
Second compound 1 µM
  IC50: > 3000 nM
Second compound 3.16 µM
  IC50: 91.8 nM
Second compound 10 µM
  IC50: > 3000 nM
[1]
  viability, T/C: 102%
[2]
  viability, T/C: 50.7%
[3]
  viability, T/C: 47.4%
[4]
  viability, T/C: 46.9%
[5]
  viability, T/C: 51.2%
[6]
  viability, T/C: 65.8%
[7]
  viability, T/C: 102%
[8]
  viability, T/C: 65.9%
[9]
  viability, T/C: 50.4%
[10]
  viability, T/C: 46.5%
[11]
  viability, T/C: 53.8%
[12]
  viability, T/C: 64.9%
[13]
  viability, T/C: 100%
[14]
  viability, T/C: 47.7%
[15]
  viability, T/C: 49.7%
[16]
  viability, T/C: 50.1%
[17]
  viability, T/C: 47.2%
[18]
  viability, T/C: 65.2%
[19]
  viability, T/C: 99.1%
[20]
  viability, T/C: 57.4%
[21]
  viability, T/C: 44.2%
[22]
  viability, T/C: 53.3%
[23]
  viability, T/C: 57.3%
[24]
  viability, T/C: 57.7%
[25]
  viability, T/C: 87.8%
[26]
  viability, T/C: 52.8%
[27]
  viability, T/C: 42.3%
[28]
  viability, T/C: 49.7%
[29]
  viability, T/C: 45.8%
[30]
  viability, T/C: 60.8%
[31]
  viability, T/C: 106%
[32]
  viability, T/C: 58.8%
[33]
  viability, T/C: 49.7%
[34]
  viability, T/C: 50.9%
[35]
  viability, T/C: 60.9%
[36]
  viability, T/C: 77.6%

## O=c1[nH]cc(F)c(=O)[nH]1 + Cc1cccc(N(C)C(=O)C2C(O)CCN2c2nc(C)cc(C(F)(F)F)c2C#N)c1
Second compound 0.0316 µM
  IC50: > 10000 nM
Second compound 0.1 µM
  IC50: > 10000 nM
Second compound 0.316 µM
  IC50: > 10000 nM
Second compound 1 µM
  IC50: > 10000 nM
Second compound 3.16 µM
  IC50: > 10000 nM
Second compound 10 µM
  IC50: > 10000 nM
[37]
  viability, T/C: 111%
[38]
  viability, T/C: 104%
Second compound 0.0316 µM, first compound 0.316 µM
  viability, T/C: 89.8%
Second compound 0.0316 µM, first compound 1 µM
  viability, T/C: 78.8%
Second compound 0.0316 µM, first compound 3.16 µM
  viability, T/C: 70.3%
Second compound 0.0316 µM, first compound 10 µM
  viability, T/C: 68.5%
[39]
  viability, T/C: 102%
[40]
  viability, T/C: 111%
Second compound 0.1 µM, first compound 0.316 µM
  viability, T/C: 128%
Second compound 0.1 µM, first compound 1 µM
  viability, T/C: 86%
Second compound 0.1 µM, first compound 3.16 µM
  viability, T/C: 76.7%
Second compound 0.1 µM, first compound 10 µM
  viability, T/C: 70.4%
[41]
  viability, T/C: 117%
[42]
  viability, T/C: 88.7%
Second compound 0.316 µM, first compound 0.316 µM
  viability, T/C: 116%
Second compound 0.316 µM, first compound 1 µM
  viability, T/C: 74.9%
Second compound 0.316 µM, first compound 3.16 µM
  viability, T/C: 80.3%
Second compound 0.316 µM, first compound 10 µM
  viability, T/C: 67.9%
[43]
  viability, T/C: 107%
[44]
  viability, T/C: 85.5%
Second compound 1 µM, first compound 0.316 µM
  viability, T/C: 105%
Second compound 1 µM, first compound 1 µM
  viability, T/C: 104%
Second compound 1 µM, first compound 3.16 µM
  viability, T/C: 82.7%
Second compound 1 µM, first compound 10 µM
  viability, T/C: 63.1%
[45]
  viability, T/C: 99.1%
[46]
  viability, T/C: 104%
Second compound 3.16 µM, first compound 0.316 µM
  viability, T/C: 80.6%
Second compound 3.16 µM, first compound 1 µM
  viability, T/C: 88.6%
Second compound 3.16 µM, first compound 3.16 µM
  viability, T/C: 80.1%
Second compound 3.16 µM, first compound 10 µM
  viability, T/C: 68.7%
[47]
  viability, T/C: 113%
[48]
  viability, T/C: 109%
Second compound 10 µM, first compound 0.316 µM
  viability, T/C: 107%
Second compound 10 µM, first compound 1 µM
  viability, T/C: 76.4%
Second compound 10 µM, first compound 3.16 µM
  viability, T/C: 69.7%
Second compound 10 µM, first compound 10 µM
  viability, T/C: 63.8%

## Cn1ncnc1[C@H]1c2n[nH]c(=O)c3cc(F)cc(c23)N[C@@H]1c1ccc(F)cc1 + Cc1cccc(N(C)C(=O)C2C(O)CCN2c2nc(C)cc(C(F)(F)F)c2C#N)c1
Second compound 0.0316 µM
  IC50: > 100 nM
Second compound 0.1 µM
  IC50: > 100 nM
Second compound 0.316 µM
  IC50: > 100 nM
Second compound 1 µM
  IC50: > 100 nM
Second compound 3.16 µM
  IC50: > 100 nM
Second compound 10 µM
  IC50: > 100 nM
Second compound 0.0316 µM, first compound 0.000316 µM
  viability, T/C: 111%
Second compound 0.0316 µM, first compound 0.001 µM
  viability, T/C: 86.9%
Second compound 0.0316 µM, first compound 0.00316 µM
  viability, T/C: 105%
Second compound 0.0316 µM, first compound 0.01 µM
  viability, T/C: 128%
[37]
  viability, T/C: 98.3%
[38]
  viability, T/C: 89.3%
Second compound 0.1 µM, first compound 0.000316 µM
  viability, T/C: 125%
Second compound 0.1 µM, first compound 0.001 µM
  viability, T/C: 125%
Second compound 0.1 µM, first compound 0.00316 µM
  viability, T/C: 102%
Second compound 0.1 µM, first compound 0.01 µM
  viability, T/C: 128%
[39]
  viability, T/C: 91.8%
[40]
  viability, T/C: 100%
Second compound 0.316 µM, first compound 0.000316 µM
  viability, T/C: 95.9%
Second compound 0.316 µM, first compound 0.001 µM
  viability, T/C: 114%
Second compound 0.316 µM, first compound 0.00316 µM
  viability, T/C: 98.2%
Second compound 0.316 µM, first compound 0.01 µM
  viability, T/C: 93.5%
[41]
  viability, T/C: 111%
[42]
  viability, T/C: 95.5%
Second compound 1 µM, first compound 0.000316 µM
  viability, T/C: 116%
Second compound 1 µM, first compound 0.001 µM
  viability, T/C: 110%
Second compound 1 µM, first compound 0.00316 µM
  viability, T/C: 89%
Second compound 1 µM, first compound 0.01 µM
  viability, T/C: 102%
[43]
  viability, T/C: 119%
[44]
  viability, T/C: 91.6%
Second compound 3.16 µM, first compound 0.000316 µM
  viability, T/C: 106%
Second compound 3.16 µM, first compound 0.001 µM
  viability, T/C: 130%
Second compound 3.16 µM, first compound 0.00316 µM
  viability, T/C: 82.9%
Second compound 3.16 µM, first compound 0.01 µM
  viability, T/C: 115%
[45]
  viability, T/C: 88.5%
[46]
  viability, T/C: 112%
Second compound 10 µM, first compound 0.000316 µM
  viability, T/C: 105%
Second compound 10 µM, first compound 0.001 µM
  viability, T/C: 102%
Second compound 10 µM, first compound 0.00316 µM
  viability, T/C: 105%
Second compound 10 µM, first compound 0.01 µM
  viability, T/C: 82.7%
[47]
  viability, T/C: 81.5%
[48]
  viability, T/C: 100%
